# From ChEMBL document CHEMBL5634119, “Design and synthesis of 4th generation EGFR inhibitors against human triple (Del19/T790M/C797S) mutation” (Eur J Med Chem, 2023)
# Experiments:
# [1] = Inhibition of EGFR del19/T790M/C797S triple mutant in mouse BAF3 cells assessed as reduction in cell proliferation incubated for 3 days by celltiter-glo assay; format: cell-based; conditions: BaF3, 72 h
# [2] = Inhibition of wild type EGFR in mouse BAF3 cells assessed as reduction in cell proliferation incubated for 3 days by celltiter-glo assay; format: cell-based; conditions: BaF3, 72 h
# HCC827 = assay: Antiproliferative activity against human HCC827 cells harboring EGFR Del19 mutant incubated for 72 hrs by SRB assay; format: functional, cell-based; conditions: HCC827, 72 h
# NCI-H1975 [3] = assay: Antiproliferative activity against human NCI-H1975 cells harboring EGFR L858R/T790M mutant incubated for 72 hrs by SRB assay; format: functional, cell-based; conditions: NCI-H1975, 72 h
# PC-9 [4] = assay: Antiproliferative activity against human PC-9 cells harboring EGFR Del19/T790M/C797S mutant incubated for 72 hrs by SRB assay; format: functional, cell-based; conditions: PC-9, 72 h
# NCI-H1975 [5] = assay: Antiproliferative activity against human NCI-H1975 cells harboring EGFR L858R/T790M/C797S mutant incubated for 72 hrs by SRB assay; format: functional, cell-based; conditions: NCI-H1975, 72 h
# A-431 = assay: Antiproliferative activity against human A-431 cells harboring wild type EGFR incubated for 72 hrs by SRB assay; format: functional, cell-based; conditions: A-431, 72 h
# [6] = target: T1, Epidermal growth factor receptor (Homo sapiens, UniProt P00533, C797S/EX19DEL/T790M); assay: Inhibition of EGFR del19/T790M/C797S triple mutant (unknown origin) in presence of ATP by FRET assay
# T1 sequence (P00533 whole entry, looked up, stated change not applied): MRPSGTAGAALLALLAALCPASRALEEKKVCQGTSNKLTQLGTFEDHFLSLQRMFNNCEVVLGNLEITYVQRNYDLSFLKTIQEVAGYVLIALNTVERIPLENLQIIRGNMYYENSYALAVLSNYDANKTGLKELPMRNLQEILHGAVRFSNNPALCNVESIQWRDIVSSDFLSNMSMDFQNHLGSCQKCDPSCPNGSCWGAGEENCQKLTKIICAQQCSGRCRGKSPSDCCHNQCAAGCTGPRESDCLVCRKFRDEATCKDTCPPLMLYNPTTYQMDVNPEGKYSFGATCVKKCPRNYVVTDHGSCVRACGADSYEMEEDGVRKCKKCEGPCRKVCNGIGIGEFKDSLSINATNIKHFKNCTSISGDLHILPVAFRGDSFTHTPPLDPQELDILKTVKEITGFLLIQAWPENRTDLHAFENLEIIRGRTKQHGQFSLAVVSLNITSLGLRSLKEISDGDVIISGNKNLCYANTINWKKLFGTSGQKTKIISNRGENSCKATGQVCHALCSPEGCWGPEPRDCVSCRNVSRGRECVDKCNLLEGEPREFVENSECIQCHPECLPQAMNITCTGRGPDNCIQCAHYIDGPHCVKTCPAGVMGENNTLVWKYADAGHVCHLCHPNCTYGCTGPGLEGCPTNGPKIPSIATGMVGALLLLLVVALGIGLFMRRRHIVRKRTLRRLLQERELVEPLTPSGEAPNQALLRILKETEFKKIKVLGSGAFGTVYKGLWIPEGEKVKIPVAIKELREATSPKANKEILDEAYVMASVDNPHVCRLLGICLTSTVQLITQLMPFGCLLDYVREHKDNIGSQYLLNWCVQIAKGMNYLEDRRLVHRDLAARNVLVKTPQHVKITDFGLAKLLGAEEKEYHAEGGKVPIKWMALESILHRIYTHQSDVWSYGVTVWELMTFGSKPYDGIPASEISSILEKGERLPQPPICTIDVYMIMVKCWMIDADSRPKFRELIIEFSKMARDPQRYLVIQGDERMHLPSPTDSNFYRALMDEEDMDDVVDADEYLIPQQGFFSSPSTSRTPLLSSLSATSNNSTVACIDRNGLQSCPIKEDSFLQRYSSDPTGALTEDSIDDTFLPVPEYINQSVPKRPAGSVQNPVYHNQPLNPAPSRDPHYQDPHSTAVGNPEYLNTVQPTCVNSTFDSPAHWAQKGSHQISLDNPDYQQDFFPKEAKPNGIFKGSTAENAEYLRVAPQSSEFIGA
# [7] = target: Epidermal growth factor receptor (Homo sapiens, UniProt P00533, C797S/L858R/T790M); assay: Inhibition of EGFR L858R/T790M/C797S triple mutant (unknown origin) in presence of ATP by FRET assay
# Chain of Epidermal growth factor receptor (Homo sapiens, UniProt P00533, C797S/L858R/T790M) (P00533 25-1210 T790M/C797S/L858R limits assumed): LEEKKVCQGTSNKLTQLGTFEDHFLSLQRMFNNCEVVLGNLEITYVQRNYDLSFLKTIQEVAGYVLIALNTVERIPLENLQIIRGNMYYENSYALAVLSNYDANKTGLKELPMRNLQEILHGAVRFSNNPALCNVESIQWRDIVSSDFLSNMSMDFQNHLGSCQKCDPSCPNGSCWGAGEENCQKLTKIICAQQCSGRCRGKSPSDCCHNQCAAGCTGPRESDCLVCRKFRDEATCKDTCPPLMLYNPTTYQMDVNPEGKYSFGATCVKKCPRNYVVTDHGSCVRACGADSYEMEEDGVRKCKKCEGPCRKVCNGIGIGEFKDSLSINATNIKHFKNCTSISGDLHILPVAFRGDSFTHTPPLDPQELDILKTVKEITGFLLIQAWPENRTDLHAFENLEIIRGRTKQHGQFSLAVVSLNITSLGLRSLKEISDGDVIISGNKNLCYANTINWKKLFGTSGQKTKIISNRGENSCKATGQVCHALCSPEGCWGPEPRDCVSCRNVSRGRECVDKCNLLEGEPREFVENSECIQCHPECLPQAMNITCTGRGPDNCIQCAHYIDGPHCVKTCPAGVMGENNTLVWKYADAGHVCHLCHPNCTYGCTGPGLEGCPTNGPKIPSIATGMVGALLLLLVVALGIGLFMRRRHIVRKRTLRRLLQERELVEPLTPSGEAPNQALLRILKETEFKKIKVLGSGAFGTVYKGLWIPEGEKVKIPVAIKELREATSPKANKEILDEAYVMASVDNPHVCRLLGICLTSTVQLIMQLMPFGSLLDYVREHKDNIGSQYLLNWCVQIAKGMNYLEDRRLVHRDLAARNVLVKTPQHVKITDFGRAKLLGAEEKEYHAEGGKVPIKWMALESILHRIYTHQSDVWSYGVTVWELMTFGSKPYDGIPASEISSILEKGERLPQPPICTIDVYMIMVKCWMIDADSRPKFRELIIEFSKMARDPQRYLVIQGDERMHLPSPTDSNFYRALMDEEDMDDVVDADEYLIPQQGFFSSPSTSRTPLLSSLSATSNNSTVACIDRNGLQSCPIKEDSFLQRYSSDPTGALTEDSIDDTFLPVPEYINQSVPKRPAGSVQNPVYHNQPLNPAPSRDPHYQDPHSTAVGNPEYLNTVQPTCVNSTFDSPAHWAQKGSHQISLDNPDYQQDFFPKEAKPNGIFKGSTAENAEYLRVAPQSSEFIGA
# [8] = target: T2, Epidermal growth factor receptor (Homo sapiens, UniProt P00533); assay: Inhibition of wild type EGFR (unknown origin) in presence of ATP by FRET assay
# T2 sequence (P00533 whole entry): as the sequence (P00533 whole entry, looked up, stated change not applied) above
# PC-9 [9] = assay: Potency index, ratio of Brigatinib IC50 to test compound IC50 for antiproliferative activity against human PC-9 cells harboring EGFR Del19/T790M/C797S mutant incubated for 72 hrs by SRB assay; format: functional
# NCI-H1975 [10] = assay: Potency index, ratio of Brigatinib IC50 to test compound IC50 for antiproliferative activity against human NCI-H1975 cells harboring EGFR L858R/T790M/C797S mutant incubated for 72 hrs by SRB assay; format: functional
# [11] = Microsomal stability in human liver microsome assessed as parent compound remaining preincubated with compound for 60 mins and measured after 1 hr by HPLC analysis; format: ADME; conditions: liver microsomes, time 2 hrs, read-out: Stability
# [12] = Microsomal stability in mouse liver microsome assessed as parent compound remaining preincubated with compound for 60 mins and measured after 1 hr by HPLC analysis; format: ADME; conditions: liver microsomes, time 2 hrs, read-out: Stability
# [13] = Plasma protein binding in human assessed as unbound fraction measured after 6 hrs by rapid equilibrium dialysis based LC-MS/MS analysis; format: ADME, cell-free
# [14] = Plasma protein binding in mouse assessed as unbound fraction measured after 6 hrs by rapid equilibrium dialysis based LC-MS/MS analysis; format: ADME, cell-free
# [15] = Stability in human plasma assessed as parent compound remaining measured after 2 hrs by LC-MS/MS analysis; format: ADME, cell-free; conditions: read-out: Stability
# [16] = Stability in mouse plasma assessed as parent compound remaining measured after 2 hrs by LC-MS/MS analysis; format: ADME, cell-free; conditions: read-out: Stability
# [17] = target: T1, Epidermal growth factor receptor; assay: Inhibition of EGFR phosphorylation in human PC-9 cells harboring Del19/T790M/C797S mutant incubated for 6 hrs by Western blot analysis; format: cell-based
# [18] = Inhibition of ERK phosphorylation in human PC-9 cells harboring Del19/T790M/C797S mutant incubated for 6 hrs by Western blot analysis; format: cell-based; conditions: PC-9, 6 h
# [19] = Inhibition of AKT phosphorylation in human PC-9 cells harboring Del19/T790M/C797S mutant incubated for 6 hrs by Western blot analysis; format: cell-based; conditions: PC-9, 6 h
# [20] = target: T2, Epidermal growth factor receptor; assay: Inhibition of EGFR phosphorylation in human A-431 cells harboring wild type EGFR incubated for 6 hrs by Western blot analysis; format: cell-based
# [21] = Inhibition of ERK phosphorylation in human A-431 cells harboring wild type EGFR incubated for 6 hrs by Western blot analysis; format: cell-based; conditions: A-431, 6 h
# [22] = Inhibition of AKT phosphorylation in human A-431 cells harboring wild type EGFR incubated for 6 hrs by Western blot analysis; format: cell-based; conditions: A-431, 6 h
# [23] = AUC (0 to 24 hrs) in mouse at 5 mg/kg, iv measured upto 24 hrs by LC-MS/MS analysis; format: ADME, organism-based; conditions: in vivo
# [24] = AUC (0 to 24 hrs) in mouse at 75 mg/kg, po measured upto 24 hrs by LC-MS/MS analysis; format: ADME, organism-based; conditions: in vivo
# [25] = Cmax in mouse at 5 mg/kg, iv measured upto 24 hrs by LC-MS/MS analysis; format: ADME, organism-based; conditions: in vivo
# [26] = Cmax in mouse at 75 mg/kg, po measured upto 24 hrs by LC-MS/MS analysis; format: ADME, organism-based; conditions: in vivo
# [27] = Tmax in mouse at 75 mg/kg, po measured upto 24 hrs by LC-MS/MS analysis; format: ADME, organism-based; conditions: in vivo
# [28] = Half life in mouse at 5 mg/kg, iv measured upto 24 hrs by LC-MS/MS analysis; format: ADME, organism-based; conditions: in vivo
# [29] = Half life in mouse at 75 mg/kg, po measured upto 24 hrs by LC-MS/MS analysis; format: ADME, organism-based; conditions: in vivo
# [30] = Clearance in mouse at 5 mg/kg, iv measured upto 24 hrs by LC-MS/MS analysis; format: ADME, organism-based; conditions: in vivo
# [31] = Volume of distribution at steady state in mouse at 5 mg/kg, iv measured upto 24 hrs by LC-MS/MS analysis; format: ADME, organism-based; conditions: in vivo, read-out: Vdss
# [32] = Oral bioavailability in mouse at 75 mg/kg measured upto 24 hrs by LC-MS/MS analysis; format: ADME, organism-based; conditions: in vivo
# [33] = Toxicity in NOD-SCID mouse xenografted with human PC-9 cells harboring Del19/T790M/C797S triple mutant assessed as body weight loss at 50 mg/kg, sc bid administered for 14 days; format: organism-based; conditions: in vivo, 336 h, time 14 day
# [34] = Toxicity in NOD-SCID mouse xenografted with human PC-9 cells harboring Del19/T790M/C797S triple mutant assessed as clinical signs at 50 mg/kg, sc bid administered for 14 days; format: organism-based; conditions: in vivo, 336 h, time 14 day
smiles,measurement,setting,value
CN(c1ccccc1Nc1nc(Nc2ccc(N3CCCCC3)c(F)c2)nc2[nH]ccc12)S(C)(=O)=O,IC50,[1],741 nM
same,IC50,[2],739 nM
CC(C)N1CCN(c2ccc(Nc3nc(Nc4ccccc4N(C)S(C)(=O)=O)c4cc[nH]c4n3)cc2F)CC1,IC50,[1],157 nM
same,IC50,[2],670 nM
CN(c1ccccc1Nc1nc(Nc2ccc(N3CCCCC3)cc2)nc2[nH]ccc12)S(C)(=O)=O,IC50,[1],566 nM
same,IC50,[2],1240 nM
CN1CCN(c2ccc(Nc3nc(Nc4ccccc4N(C)S(C)(=O)=O)c4cc[nH]c4n3)cc2F)CC1,IC50,HCC827,230 nM
same,IC50,[1],22.5 nM
same,IC50,[2],267 nM
same,IC50,NCI-H1975 [3],185 nM
same,IC50,PC-9 [4],208 nM
same,IC50,NCI-H1975 [5],289 nM
same,IC50,A-431,263 nM
same,IC50,[6],4 nM
same,IC50,[7],20.2 nM
same,IC50,[8],1.53 µM
CN1CCN(c2ccc(Nc3nc(Nc4ccccc4N(C)S(C)(=O)=O)c4cc[nH]c4n3)cc2Cl)CC1,IC50,[1],53.8 nM
same,IC50,[2],47.4 nM
CN1CCN(c2ccc(Nc3nc(Nc4ccccc4N(C4CC4)S(C)(=O)=O)c4cc[nH]c4n3)cc2F)CC1,IC50,[1],55.9 nM
same,IC50,[2],273 nM
CCS(=O)(=O)N(C)c1ccccc1Nc1nc(Nc2ccc(N3CCN(C)CC3)c(F)c2)nc2[nH]ccc12,IC50,[1],16.4 nM
same,IC50,[2],238 nM
CCN1CCN(c2ccc(Nc3nc(Nc4ccccc4N(C)S(C)(=O)=O)c4cc[nH]c4n3)cc2F)CC1,IC50,HCC827,121 nM
same,IC50,[1],10.1 nM
same,IC50,[2],667 nM
same,IC50,NCI-H1975 [3],178 nM
same,IC50,PC-9 [4],155 nM
same,IC50,NCI-H1975 [5],202 nM
same,IC50,A-431,334 nM
same,Ratio IC50,PC-9 [9],5.4
same,Ratio IC50,NCI-H1975 [10],5.4
same,IC50,[6],9.2 nM
same,IC50,[7],12.7 nM
same,IC50,[8],> 10 µM
same,remaining at 1 h,[11],41.9%
same,remaining at 1 h,[12],33%
same,fraction unbound at 6 h,[13],0.916
same,fraction unbound at 6 h,[14],0.926
same,remaining at 2 h,[15],91.8%
same,remaining at 2 h,[16],97.8%
same,IC50,[17],9.6 nM
same,IC50,[18],23 nM
same,IC50,[19],27 nM
same,IC50,[20],1320 nM
same,IC50,[21],3940 nM
same,IC50,[22],2160 nM
same,AUC(0-t) at 24 h,[23],978 ng·h/mL
same,AUC(0-t) at 24 h,[24],34000 ng·h/mL
same,Cmax,[25],4550 ng/mL
same,Cmax,[26],6030 ng/mL
same,Tmax,[27],0.5 h
same,half-life,[28],42 min
same,half-life,[29],138 min
same,clearance,[30],85 mL/min/kg
same,Vd,[31],2 L/kg
same,bioavailability,[32],> 100%
same,Activity,[33],Non-Toxic
same,Activity,[34],Non-Toxic
COc1cc(N2CCN(C)CC2)ccc1Nc1nc(Nc2ccccc2N(C)S(C)(=O)=O)c2cc[nH]c2n1,IC50,[1],329 nM
same,IC50,[2],3170 nM
CC(C)N(c1ccccc1Nc1nc(Nc2ccc(N3CCN(C)CC3)c(F)c2)nc2[nH]ccc12)S(C)(=O)=O,IC50,[1],71.2 nM
same,IC50,[2],307 nM
CN1CCN(c2ccc(Nc3nc(Nc4ccccc4N(C)S(=O)(=O)C4CC4)c4cc[nH]c4n3)cc2F)CC1,IC50,[1],29.6 nM
same,IC50,[2],214 nM
CCN1CCN(C2CCN(c3ccc(Nc4nc(Nc5ccccc5N(C)S(C)(=O)=O)c5cc[nH]c5n4)cc3F)CC2)CC1,IC50,HCC827,84.2 nM
same,IC50,[1],15.5 nM
same,IC50,[2],713 nM
same,IC50,NCI-H1975 [3],98.8 nM
same,IC50,PC-9 [4],151 nM
same,IC50,NCI-H1975 [5],130 nM
same,IC50,A-431,484 nM
same,Ratio IC50,PC-9 [9],5.4
same,Ratio IC50,NCI-H1975 [10],5.4
same,IC50,[6],4.2 nM
same,IC50,[7],4.7 nM
same,IC50,[8],10.3 µM
same,remaining at 1 h,[11],57.3%
same,remaining at 1 h,[12],24%
same,fraction unbound at 6 h,[13],0.937
same,fraction unbound at 6 h,[14],0.946
same,remaining at 2 h,[15],99.1%
same,remaining at 2 h,[16],97.4%
same,IC50,[17],7.4 nM
same,IC50,[18],26 nM
same,IC50,[19],7.1 nM
same,IC50,[20],1180 nM
same,IC50,[21],1670 nM
same,IC50,[22],1820 nM
same,AUC(0-t) at 24 h,[23],1560 ng·h/mL
same,AUC(0-t) at 24 h,[24],35800 ng·h/mL
same,Cmax,[25],1560 ng/mL
same,Cmax,[26],5480 ng/mL
same,Tmax,[27],2 h
same,half-life,[28],102 min
same,half-life,[29],210 min
same,clearance,[30],53.3 mL/min/kg
same,Vd,[31],10.8 L/kg
same,bioavailability,[32],> 100%
same,Activity,[33],Non-Toxic
same,Activity,[34],Non-Toxic
CN1CCN(C2CCN(c3ccc(Nc4nc(Nc5ccccc5N(C)S(C)(=O)=O)c5cc[nH]c5n4)cc3F)CC2)CC1,IC50,HCC827,370 nM
same,IC50,[1],11.4 nM
same,IC50,[2],254 nM
same,IC50,NCI-H1975 [3],211 nM
same,IC50,PC-9 [4],262 nM
same,IC50,NCI-H1975 [5],196 nM
same,IC50,A-431,317 nM
same,IC50,[6],4 nM
same,IC50,[7],4.9 nM
same,IC50,[8],4.58 µM
CN(c1ccccc1Nc1nc(Nc2ccc(N3CCN(C(=O)OC(C)(C)C)CC3)c(F)c2)nc2[nH]ccc12)S(C)(=O)=O,IC50,[1],426 nM
same,IC50,[2],2400 nM
